Activity calls are given as the source filed them. The rule behind the calls is not given here.
Columns and labels:
Peritoneal macrophage = assay: Cytotoxicity against BALB/c mouse peritoneal macrophage assessed as cell proliferation at 20 ug for 48 hrs by MTT assay; type: toxicity, cell-based; settings: dose 20 µg
[1] = biological target: Nucleotide-binding oligomerization domain-containing protein 2 (Homo sapiens) (UniProt Q9HC29); assay: Binding affinity to NOD2 in HEK-Blue hNOD2 cells by measuring secreted alkaline phosphatase into culture supernatant at 20 ug measured after 24 hrs by HEK-Blue detection method; type: cell-based; settings: filed as agonist, dose 20.0 µg
[2] = Induction of mouse spleen dendritic cells activation at 20 ug for 24 hrs relative to control; type: functional, Dendritic cell; settings: dose 20 µg
[3] = Induction of BALB/c mouse peritoneal macrophage activation by measuring TNF-alpha level at 20 ug for 48 hrs by ELISA analysis; type: functional; settings: dose 20 µg
Splenocyte [4] = assay: Cytotoxicity against mouse splenocyte incubated at 10 to 30 ug for 3 hrs in by MTT assay; type: toxicity, cell-based; settings: dose 10-30 µg
Serum [5] = assay: Induction of antibody titer production in immunized BALB/c mouse serum assessed as fold increase in IgG1 antibody titer at 30 ug for 28 days; type: functional; settings: dose 30 µg; time 28 day
CD4+ve Th [6] = assay: Stimulation of CD4+ T helper cells in mouse spleen for 15 mins by auto- fluorescence based analysis; type: functional, cell-based
Serum [7] = assay: Induction of antibody titer production in immunized BALB/c mouse serum assessed as increase in IgG1 antibody titer at 10 to 30 ug for 28 days; type: functional, cell-free; settings: dose 10-30 µg, time 28.0 day
CD8-positive T cell [8] = assay: Stimulation of […] in mouse spleen for 15 mins by auto- fluorescence based analysis; type: functional, tissue-based; settings: dose 10-30 µg
Serum [9] = assay: Induction of antibody titer production in immunized BALB/c mouse serum assessed as fold increase in IgG1 antibody titer at 20 ug for 28 days; type: functional; settings: dose 20 µg; time 28 day
Serum [10] = assay: Induction of antibody titer production in immunized BALB/c mouse serum assessed as increase in IgG2a antibody titer at 10 to 30 ug for 28 days; type: functional, cell-free; settings: dose 10-30 µg, time 28.0 day
Serum [11] = assay: Induction of antibody titer production in immunized BALB/c mouse serum assessed as increase in IgG1 antibody titer at 20 ug for 28 days; type: functional, cell-free; settings: dose 20.0 µg, time 28.0 day
Serum [12] = assay: Induction of antibody titer production in immunized BALB/c mouse serum assessed as increase in IgG2a antibody titer at 20 ug for 28 days; type: functional, cell-free; settings: dose 20.0 µg, time 28.0 day
[13] = Cytotoxicity against BALB/c mouse peritoneal macrophage assessed as cell proliferation at 20 ug for 48 hrs by MTT assay relative to control; type: toxicity, cell-based; settings: peritoneal macrophages, at 20 µg, read-out: Activity
CD8-positive T cell [14] = assay: Stimulation of […] in mouse spleen at 20 ug for 15 mins by auto- fluorescence based analysis; type: functional, tissue-based; settings: dose 20.0 µg
Splenocyte [15] = assay: Upregulation of IL-1beta in Dengue virus recombinant antigen restimulated mouse splenocyte incubated at 20 ug for 48 hrs by ELISA anlaysis; type: functional, cell-based; settings: dose 20.0 µg
Splenocyte [16] = assay: Upregulation of IL-1beta in Dengue virus recombinant antigen restimulated mouse splenocyte incubated at 30 ug for 48 hrs by ELISA anlaysis; type: functional, cell-based; settings: dose 10-30 µg
CD4+ve Th [17] = assay: Stimulation of CD4+ T helper cells in mouse spleen at 20 ug for 15 mins by auto- fluorescence based analysis; type: functional, cell-based; settings: dose 20.0 µg

Sequence of Nucleotide-binding oligomerization domain-containing protein 2 (Homo sapiens) (Q9HC29 whole entry, the tested form may be a part): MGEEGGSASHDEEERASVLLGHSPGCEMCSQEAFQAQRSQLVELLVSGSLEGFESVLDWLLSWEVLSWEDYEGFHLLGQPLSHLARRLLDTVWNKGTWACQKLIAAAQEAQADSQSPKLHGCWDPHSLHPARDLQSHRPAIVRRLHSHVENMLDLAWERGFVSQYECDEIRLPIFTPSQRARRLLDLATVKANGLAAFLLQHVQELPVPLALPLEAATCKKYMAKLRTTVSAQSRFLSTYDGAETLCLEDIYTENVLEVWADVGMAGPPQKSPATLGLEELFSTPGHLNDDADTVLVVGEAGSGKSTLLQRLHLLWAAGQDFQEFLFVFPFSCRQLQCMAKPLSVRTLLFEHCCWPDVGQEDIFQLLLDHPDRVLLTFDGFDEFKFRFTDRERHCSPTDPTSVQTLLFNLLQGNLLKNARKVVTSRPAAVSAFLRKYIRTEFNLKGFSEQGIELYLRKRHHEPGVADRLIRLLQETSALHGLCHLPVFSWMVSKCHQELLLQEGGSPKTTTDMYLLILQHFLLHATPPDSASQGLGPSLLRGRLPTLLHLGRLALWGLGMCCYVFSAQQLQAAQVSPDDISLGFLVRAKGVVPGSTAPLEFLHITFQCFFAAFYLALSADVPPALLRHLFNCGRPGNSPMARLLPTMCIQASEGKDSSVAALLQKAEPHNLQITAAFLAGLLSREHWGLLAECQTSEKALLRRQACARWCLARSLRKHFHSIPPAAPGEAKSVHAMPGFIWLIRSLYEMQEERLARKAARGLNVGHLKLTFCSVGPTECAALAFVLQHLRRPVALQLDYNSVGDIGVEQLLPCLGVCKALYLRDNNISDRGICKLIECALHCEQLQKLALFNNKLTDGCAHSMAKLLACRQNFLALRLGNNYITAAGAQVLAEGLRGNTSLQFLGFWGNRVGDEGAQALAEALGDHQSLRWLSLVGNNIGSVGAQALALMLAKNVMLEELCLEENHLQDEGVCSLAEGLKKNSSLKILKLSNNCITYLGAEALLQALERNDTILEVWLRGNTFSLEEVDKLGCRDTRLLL

Structure (SMILES) | Activity (Peritoneal macrophage) | Activity [1] | Activity [2] | Activity [3] | Activity (Splenocyte [4]) | fold change (FC) (Serum [5]) | Activity (CD4+ve Th [6]) | Activity (Serum [7]) | Activity (CD8-positive T cell [8]) | fold change (FC) (Serum [9]) | Activity (Serum [10]) | Activity (Serum [11]) | Activity (Serum [12]) | viability at 48 h, 20 ug [13] | Activity (CD8-positive T cell [14]) | Activity (Splenocyte [15]) | Activity (Splenocyte [16]) | Activity (CD4+ve Th [17])
CC(=O)N[C@@H]1[C@@H](O[C@H](C)C(=O)N[C@@H](C)C(=O)N[C@H](CCC(=O)O)c2nnn(C3CCCCCC3)n2)[C@H](O)[C@@H](CO)O[C@@H]1O | Non-Toxic | Active | 13% | 250 pg/mL | – | – | – | – | – | – | – | – | – | – | – | – | – | –
CCCCn1nnc([C@@H](CCC(=O)O)NC(=O)[C@H](C)NC(=O)[C@@H](C)O[C@H]2[C@H](O)[C@@H](CO)O[C@H](O)[C@@H]2NC(C)=O)n1 | Non-Toxic | Active | 13% | <=100 pg/ml | Non-Toxic | 11 | Dose-Dependent Effect | Active | Dose-Dependent Effect | 8 | Active | – | – | – | – | – | – | –
CC(=O)N[C@H]1[C@@H](OCc2ccccc2)O[C@@H]2CO[C@@H](c3ccccc3)O[C@H]2[C@@H]1O[C@H](C)C(=O)N[C@@H](C)C(=O)N[C@H](CCC(=O)OCc1ccccc1)C(N)=O | Non-Toxic | Active | 13% | – | Toxic | – | – | – | – | 7 | – | Active | Active | – | – | – | – | –
CCCCCCCCCCCCCCCCCCn1nnc([C@@H](CCC(=O)O)NC(=O)[C@H](C)NC(=O)[C@@H](C)O[C@H]2[C@H](O)[C@@H](CO)O[C@H](O)[C@@H]2NC(C)=O)n1 | Non-Toxic | Active | 13% | <=100 pg/ml | – | – | – | – | – | – | – | – | – | – | – | – | – | –
CC(=O)N[C@@H]1[C@@H](O[C@H](C)C(=O)N[C@@H](C)C(=O)N[C@H](CCC(=O)O)c2nn[nH]n2)[C@H](O)[C@@H](CO)O[C@@H]1O | Non-Toxic | Active | 13% | 250 pg/mL | – | – | – | – | – | – | – | – | – | – | – | – | – | –
CCCCCCCCCCCCn1nnc([C@@H](CCC(=O)O)NC(=O)[C@H](C)NC(=O)[C@@H](C)O[C@H]2[C@H](O)[C@@H](CO)O[C@H](O)[C@@H]2NC(C)=O)n1 | Non-Toxic | Active | 13% | 250 pg/mL | – | – | – | – | – | – | – | – | – | < 140% | – | – | – | –
CCCCCCCCn1nnc([C@@H](CCC(=O)O)NC(=O)[C@H](C)NC(=O)[C@@H](C)O[C@H]2[C@H](O)[C@@H](CO)O[C@H](O)[C@@H]2NC(C)=O)n1 | Non-Toxic | Active | 13% | <=100 pg/ml | Non-Toxic | – | – | Active | – | 11 | Active | – | – | – | inactive | Active | Active | inactive
